ChEMBL document CHEMBL5034031, “Discovery of Next-Generation Tropomyosin Receptor Kinase Inhibitors for Combating Multiple Resistance Associated with Protein Mutation” (J Med Chem, 2021)

Columns and labels:
[1] = tested on: BaF3; assay: Antiproliferative activity against mouse BaF3 cells transfected with ETV6-wild type TRKA assessed as cell viability incubated for 72 hrs by CCK8 assay; assay type: functional, cell-based; conditions: BaF3, 72 h
[2] = tested on: BaF3; assay: Antiproliferative activity against mouse BaF3 cells transfected with ETV6-wild type TRKB assessed as cell viability incubated for 72 hrs by CCK8 assay; assay type: functional, cell-based; conditions: BaF3, 72 h
[3] = tested on: BaF3; assay: Antiproliferative activity against mouse BaF3 cells transfected with ETV6-wild type TRKC assessed as cell viability incubated for 72 hrs by CCK8 assay; assay type: functional, cell-based; conditions: BaF3, 72 h
[4] = tested on: BaF3; assay: Antiproliferative activity against mouse BAF3 cells transfected with LMNA-TRKA G595R mutant assessed as cell viability incubated for 72 hrs by CCK8 assay; assay type: functional, cell-based; conditions: BaF3, 72 h
[5] = tested on: BaF3; assay type: functional, cell-based; conditions: Mus musculus, BaF3, 72 h
[6] = tested on: BaF3; assay: Antitumor activity against mouse BAF3 cells harboring TMP3 fused wild type TRKA xenografted in BALB/c nude mouse assessed as tumor growth inhibition at 5 mg/kg, po administered twice daily for 12 to […] consecutive days; assay type: functional; conditions: time 12-14 day, read-out: TGI
[7] = tested on: BaF3; assay: animal or person; assay type: functional; conditions: Mus musculus, BaF3, po; dose 15 mg/kg; time 12-14 day; read-out: TGI
[8] = tested on: BaF3; assay: Antitumor activity against mouse BAF3 cells harboring TMP3 fused TRKA G595R mutant xenografted in BALB/c nude mouse assessed as tumor growth inhibition at 30 mg/kg, po administered twice daily for 12 to […] consecutive days; assay type: functional; conditions: time 12-14 day, read-out: TGI
[9] = tested on: BaF3; assay: Antitumor activity against mouse BAF3 cells harboring ETV6 fused TRKC G623R mutant xenografted in BALB/c nude mouse assessed as tumor growth inhibition at 30 mg/kg, po administered twice daily for 12 to […] consecutive days; assay type: functional; conditions: time 12-14 day, read-out: TGI
[10] = Toxicity in BALB/c mouse xenografted with mouse BAF3 cells harboring ETV6 fused TRKC G623R mutant assessed as mortality at 15 to 30 mg/kg, po administered twice daily for 12 to […] consecutive days; assay type: organism-based; conditions: in vivo, dose lower 15 mg/kg, time lower 12 day, dose upper 30 mg/kg, time upper 14 day
[11] = AUC(0 to infinity) in Sprague-Dawley rat at 5 mg/kg, ig measured upto 24 hrs by LC-MS/MS analysis; assay type: ADME, organism-based; set-up: route […], dose 5 mg/kg, time <=24; conditions: in vivo, po
[12] = Clearance in Sprague-Dawley rat at 5 mg/kg, ig measured upto 24 hrs by LC-MS/MS analysis; assay type: ADME, organism-based; conditions: in vivo, po
[13] = Half life in Beagle dog at 1 mg/kg, iv measured upto 24 hrs by LC-MS/MS analysis; assay type: ADME, organism-based, Canis lupus familiaris; conditions: in vivo
[14] = Half life in Beagle dog at 5 mg/kg, ig measured upto 24 hrs by LC-MS/MS analysis; assay type: ADME, organism-based, Canis lupus familiaris; conditions: in vivo, po
[15] = Tmax in Beagle dog at 5 mg/kg, ig measured upto 24 hrs by LC-MS/MS analysis; assay type: ADME, organism-based, Canis lupus familiaris; conditions: in vivo, po
[16] = Cmax in Beagle dog at 1 mg/kg, iv measured upto 24 hrs by LC-MS/MS analysis; assay type: ADME, organism-based, Canis lupus familiaris; set-up: route intravenous, dose 1 mg/kg, time <=24; conditions: in vivo
[17] = AUC(0 to infinity) in Beagle dog at 1 mg/kg, iv measured upto 24 hrs by LC-MS/MS analysis; assay type: ADME, organism-based, Canis lupus familiaris; set-up: route intravenous, dose 1 mg/kg, time <=24; conditions: in vivo
[18] = Volume of distribution in Beagle dog at 5 mg/kg, ig measured upto 24 hrs by LC-MS/MS analysis; assay type: ADME, organism-based, Canis lupus familiaris; conditions: in vivo, po
[19] = Oral bioavailability in Beagle dog at 5 mg/kg measured upto 24 hrs by LC-MS/MS analysis; assay type: ADME, organism-based, Canis lupus familiaris; conditions: in vivo
[20] = Plasma protein binding in rat; assay type: ADME, cell-free; conditions: read-out: PPB (converted)
[21] = Plasma protein binding in human; assay type: ADME, cell-free; conditions: read-out: PPB (converted)
[22] = biological target: Voltage-gated inwardly rectifying potassium channel KCNH2 (Homo sapiens, UniProt Q12809); assay: Inhibition of hERG
[23] = biological target: Tyrosine-protein kinase ABL2 (Homo sapiens) (UniProt P42684); assay: Inhibition of ABL2 (unknown origin) at 1 uM relative to control
[24] = biological target: Tyrosine-protein kinase receptor UFO (Homo sapiens) (UniProt P30530); assay: Inhibition of AXL (unknown origin) at 1 uM relative to control
[25] = biological target: Dual specificity protein kinase CLK2 (Homo sapiens) (UniProt P49760); assay: Inhibition of CLK2 (unknown origin) at 1 uM relative to control
[26] = biological target: Focal adhesion kinase 1 (Homo sapiens) (UniProt Q05397); assay: Inhibition of FAK (unknown origin) at 1 uM relative to control
[27] = biological target: Vascular endothelial growth factor receptor 1 (Homo sapiens) (UniProt P17948); assay: Inhibition of FLT1 (unknown origin) at 1 uM relative to control
[28] = biological target: Inhibitor of nuclear factor kappa-B kinase subunit beta (Homo sapiens) (UniProt O14920); assay: Inhibition of IKBKB (unknown origin) at 1 uM relative to control
[29] = biological target: Vascular endothelial growth factor receptor 2 (Homo sapiens) (UniProt P35968); assay: Inhibition of KDR (unknown origin) at 1 uM relative to control
[30] = biological target: Mast/stem cell growth factor receptor Kit (Homo sapiens) (UniProt P10721); assay: Inhibition of KIT (unknown origin) at 1 uM relative to control
[31] = biological target: Serine/threonine-protein kinase mTOR (Homo sapiens) (UniProt P42345); assay: Inhibition of mTOR (unknown origin) at 1 uM relative to control
[32] = biological target: Serine/threonine-protein kinase Nek6 (Homo sapiens) (UniProt Q9HC98); assay: Inhibition of NEK6 (unknown origin) at 1 uM relative to control
[33] = biological target: Platelet-derived growth factor receptor alpha (Homo sapiens) (UniProt P16234); assay: Inhibition of PDGFRalpha (unknown origin) at 1 uM relative to control
[34] = biological target: [Pyruvate dehydrogenase (acetyl-transferring)] kinase isozyme 1, mitochondrial (Homo sapiens) (UniProt Q15118); assay: Inhibition of PDK1 (unknown origin) at 1 uM relative to control
[35] = biological target: Rho-associated protein kinase 1 (Homo sapiens) (UniProt Q13464); assay: Inhibition of ROCK1 (unknown origin) at 1 uM relative to control
[36] = biological target: SRSF protein kinase 1 (Homo sapiens) (UniProt Q96SB4); assay: Inhibition of SRPK1 (unknown origin) at 1 uM relative to control
[37] = biological target: BDNF/NT-3 growth factors receptor (Homo sapiens) (UniProt Q16620); assay: Inhibition of TRKB (unknown origin) at 1 uM relative to control
[38] = biological target: NT-3 growth factor receptor (Homo sapiens) (UniProt Q16288); assay: Inhibition of TRKC (unknown origin) at 1 uM relative to control
[39] = Toxicity in BALB/c nude mouse xenografted with mouse BAF3 cells harboring TMP3 fused TRKA G595R mutant assessed as body weight loss at 30 mg/kg, po administered twice daily for 12 to 14 consecutive days; assay type: organism-based; conditions: in vivo, time 12-14 day

Mast/stem cell growth factor receptor Kit (Homo sapiens), sequence (P10721 whole entry): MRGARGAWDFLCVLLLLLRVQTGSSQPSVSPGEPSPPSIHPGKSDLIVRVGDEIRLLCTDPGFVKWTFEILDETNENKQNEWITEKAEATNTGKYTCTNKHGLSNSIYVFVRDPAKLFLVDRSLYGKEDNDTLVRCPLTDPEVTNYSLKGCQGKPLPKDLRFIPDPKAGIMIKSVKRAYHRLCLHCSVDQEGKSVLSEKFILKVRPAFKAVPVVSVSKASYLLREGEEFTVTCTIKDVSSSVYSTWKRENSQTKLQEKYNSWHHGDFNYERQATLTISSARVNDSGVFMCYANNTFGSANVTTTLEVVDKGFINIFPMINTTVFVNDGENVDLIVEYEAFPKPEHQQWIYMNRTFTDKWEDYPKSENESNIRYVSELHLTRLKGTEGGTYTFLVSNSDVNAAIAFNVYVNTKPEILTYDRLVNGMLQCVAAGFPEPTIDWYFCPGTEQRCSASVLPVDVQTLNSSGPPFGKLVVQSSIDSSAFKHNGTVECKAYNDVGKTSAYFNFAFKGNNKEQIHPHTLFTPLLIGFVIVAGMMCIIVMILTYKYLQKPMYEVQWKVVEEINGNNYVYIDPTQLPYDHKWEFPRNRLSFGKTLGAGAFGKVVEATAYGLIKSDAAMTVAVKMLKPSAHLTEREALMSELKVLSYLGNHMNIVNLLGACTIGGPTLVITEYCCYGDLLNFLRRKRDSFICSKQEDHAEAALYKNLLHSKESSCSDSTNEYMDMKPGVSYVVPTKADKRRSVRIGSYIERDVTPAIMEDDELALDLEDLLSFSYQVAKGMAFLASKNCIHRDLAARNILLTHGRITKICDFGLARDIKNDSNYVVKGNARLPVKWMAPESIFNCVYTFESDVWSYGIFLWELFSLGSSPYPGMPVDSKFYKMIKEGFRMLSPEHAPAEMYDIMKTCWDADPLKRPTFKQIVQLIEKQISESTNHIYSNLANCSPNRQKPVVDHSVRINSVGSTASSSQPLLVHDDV
Inhibitor of nuclear factor kappa-B kinase subunit beta (Homo sapiens), sequence (O14920 whole entry): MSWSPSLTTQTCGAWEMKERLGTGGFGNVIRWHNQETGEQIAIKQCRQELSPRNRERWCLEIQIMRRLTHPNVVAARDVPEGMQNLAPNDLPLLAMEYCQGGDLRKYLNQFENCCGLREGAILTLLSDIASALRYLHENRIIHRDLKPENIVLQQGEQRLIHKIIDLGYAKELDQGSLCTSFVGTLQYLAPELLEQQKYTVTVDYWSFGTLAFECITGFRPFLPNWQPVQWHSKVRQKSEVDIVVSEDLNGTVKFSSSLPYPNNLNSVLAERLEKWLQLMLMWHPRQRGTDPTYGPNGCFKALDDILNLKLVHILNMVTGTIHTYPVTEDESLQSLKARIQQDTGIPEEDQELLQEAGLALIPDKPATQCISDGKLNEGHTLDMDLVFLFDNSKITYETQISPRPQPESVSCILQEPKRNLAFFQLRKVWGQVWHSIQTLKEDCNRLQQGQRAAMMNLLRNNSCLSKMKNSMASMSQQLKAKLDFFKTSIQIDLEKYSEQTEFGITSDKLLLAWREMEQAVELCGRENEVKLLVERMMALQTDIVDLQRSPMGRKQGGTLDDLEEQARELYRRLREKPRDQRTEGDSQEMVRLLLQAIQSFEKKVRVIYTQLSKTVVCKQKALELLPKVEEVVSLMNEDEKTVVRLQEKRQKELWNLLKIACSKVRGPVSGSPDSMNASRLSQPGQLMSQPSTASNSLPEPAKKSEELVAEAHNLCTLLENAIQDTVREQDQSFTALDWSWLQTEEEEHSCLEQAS
Vascular endothelial growth factor receptor 2 (Homo sapiens), sequence (P35968 whole entry): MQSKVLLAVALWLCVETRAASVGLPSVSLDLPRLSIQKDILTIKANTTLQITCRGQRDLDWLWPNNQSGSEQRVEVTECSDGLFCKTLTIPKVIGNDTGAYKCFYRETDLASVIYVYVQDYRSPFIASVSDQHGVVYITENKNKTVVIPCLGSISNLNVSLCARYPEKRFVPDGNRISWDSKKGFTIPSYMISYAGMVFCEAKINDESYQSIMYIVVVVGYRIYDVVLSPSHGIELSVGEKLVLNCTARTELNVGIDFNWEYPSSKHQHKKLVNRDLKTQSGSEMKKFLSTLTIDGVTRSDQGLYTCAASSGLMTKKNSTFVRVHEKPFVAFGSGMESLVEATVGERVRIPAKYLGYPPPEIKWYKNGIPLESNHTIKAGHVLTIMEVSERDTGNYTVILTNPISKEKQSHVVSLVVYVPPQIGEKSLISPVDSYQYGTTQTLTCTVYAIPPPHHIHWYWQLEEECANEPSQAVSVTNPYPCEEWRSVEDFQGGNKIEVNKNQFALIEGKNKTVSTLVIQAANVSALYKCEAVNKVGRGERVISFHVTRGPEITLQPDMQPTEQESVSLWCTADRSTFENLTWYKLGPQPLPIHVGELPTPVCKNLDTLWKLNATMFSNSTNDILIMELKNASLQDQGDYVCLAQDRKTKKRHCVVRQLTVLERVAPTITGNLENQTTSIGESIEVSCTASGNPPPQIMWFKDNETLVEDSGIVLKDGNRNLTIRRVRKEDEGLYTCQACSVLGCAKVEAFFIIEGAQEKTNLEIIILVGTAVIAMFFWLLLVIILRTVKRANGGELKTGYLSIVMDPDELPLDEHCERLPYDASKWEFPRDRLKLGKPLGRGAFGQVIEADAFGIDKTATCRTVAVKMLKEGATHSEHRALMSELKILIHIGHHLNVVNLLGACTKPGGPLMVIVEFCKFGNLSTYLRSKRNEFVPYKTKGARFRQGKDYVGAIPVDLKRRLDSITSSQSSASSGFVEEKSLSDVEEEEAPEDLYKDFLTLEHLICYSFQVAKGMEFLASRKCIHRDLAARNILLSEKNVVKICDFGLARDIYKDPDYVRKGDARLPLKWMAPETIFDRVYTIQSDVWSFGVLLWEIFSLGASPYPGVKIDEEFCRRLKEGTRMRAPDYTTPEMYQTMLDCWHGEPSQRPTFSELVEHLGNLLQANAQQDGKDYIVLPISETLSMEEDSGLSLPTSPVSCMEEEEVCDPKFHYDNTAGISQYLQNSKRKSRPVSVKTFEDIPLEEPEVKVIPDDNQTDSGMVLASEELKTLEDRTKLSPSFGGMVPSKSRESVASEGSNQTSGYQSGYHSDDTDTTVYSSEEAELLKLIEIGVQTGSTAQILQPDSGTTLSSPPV
Tyrosine-protein kinase ABL2 (Homo sapiens), sequence (P42684 whole entry): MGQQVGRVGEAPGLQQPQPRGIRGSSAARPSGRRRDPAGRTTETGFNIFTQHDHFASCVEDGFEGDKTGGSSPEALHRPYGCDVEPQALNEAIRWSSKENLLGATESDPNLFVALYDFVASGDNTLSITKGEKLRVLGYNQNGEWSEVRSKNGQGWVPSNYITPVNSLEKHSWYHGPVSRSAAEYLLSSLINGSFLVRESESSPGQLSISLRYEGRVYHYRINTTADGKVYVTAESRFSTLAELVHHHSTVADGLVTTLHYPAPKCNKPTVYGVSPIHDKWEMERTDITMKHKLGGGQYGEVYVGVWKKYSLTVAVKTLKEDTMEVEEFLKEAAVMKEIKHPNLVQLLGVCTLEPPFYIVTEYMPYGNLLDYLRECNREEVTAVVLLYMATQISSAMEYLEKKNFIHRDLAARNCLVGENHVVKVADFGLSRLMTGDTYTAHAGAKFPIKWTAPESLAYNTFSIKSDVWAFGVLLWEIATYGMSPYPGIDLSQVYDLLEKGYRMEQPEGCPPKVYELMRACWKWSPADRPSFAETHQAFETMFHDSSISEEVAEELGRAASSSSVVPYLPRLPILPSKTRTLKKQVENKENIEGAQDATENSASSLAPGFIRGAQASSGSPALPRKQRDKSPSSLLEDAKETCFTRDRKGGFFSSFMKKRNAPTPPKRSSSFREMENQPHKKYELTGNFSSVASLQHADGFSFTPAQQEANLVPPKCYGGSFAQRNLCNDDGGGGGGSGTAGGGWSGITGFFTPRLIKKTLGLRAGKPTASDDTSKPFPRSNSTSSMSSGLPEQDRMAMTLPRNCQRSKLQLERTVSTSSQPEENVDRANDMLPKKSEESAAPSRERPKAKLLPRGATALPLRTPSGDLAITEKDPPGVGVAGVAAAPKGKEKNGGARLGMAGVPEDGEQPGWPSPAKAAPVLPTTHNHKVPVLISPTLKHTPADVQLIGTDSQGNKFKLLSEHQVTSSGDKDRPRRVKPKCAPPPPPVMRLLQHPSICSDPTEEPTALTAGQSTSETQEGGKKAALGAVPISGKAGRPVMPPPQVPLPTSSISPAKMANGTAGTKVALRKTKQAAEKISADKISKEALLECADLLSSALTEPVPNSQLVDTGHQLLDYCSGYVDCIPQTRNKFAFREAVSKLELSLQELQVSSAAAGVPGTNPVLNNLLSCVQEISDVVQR
NT-3 growth factor receptor (Homo sapiens), sequence (Q16288 32-839 limits assumed): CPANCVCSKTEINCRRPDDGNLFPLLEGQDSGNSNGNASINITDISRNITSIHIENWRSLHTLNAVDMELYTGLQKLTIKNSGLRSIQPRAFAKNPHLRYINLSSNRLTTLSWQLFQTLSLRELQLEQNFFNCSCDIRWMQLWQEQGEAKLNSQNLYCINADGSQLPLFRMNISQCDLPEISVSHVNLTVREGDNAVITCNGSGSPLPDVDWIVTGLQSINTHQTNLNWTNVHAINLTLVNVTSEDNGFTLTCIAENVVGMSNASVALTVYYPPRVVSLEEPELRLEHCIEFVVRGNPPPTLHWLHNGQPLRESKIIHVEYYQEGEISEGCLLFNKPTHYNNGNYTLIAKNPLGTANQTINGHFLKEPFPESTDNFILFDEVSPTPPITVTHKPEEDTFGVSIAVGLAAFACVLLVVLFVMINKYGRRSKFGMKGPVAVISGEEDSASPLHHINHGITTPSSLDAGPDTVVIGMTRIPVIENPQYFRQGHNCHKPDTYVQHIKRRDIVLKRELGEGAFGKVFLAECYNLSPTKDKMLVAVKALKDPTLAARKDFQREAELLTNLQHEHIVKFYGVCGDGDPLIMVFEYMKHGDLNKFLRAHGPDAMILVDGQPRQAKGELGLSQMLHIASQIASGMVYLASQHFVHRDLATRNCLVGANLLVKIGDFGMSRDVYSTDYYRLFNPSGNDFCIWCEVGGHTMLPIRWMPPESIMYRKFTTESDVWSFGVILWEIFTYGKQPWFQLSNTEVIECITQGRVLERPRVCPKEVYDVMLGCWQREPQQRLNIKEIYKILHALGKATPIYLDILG

In the case of `C[C@@H](Nc1ccn2ncc(-c3cnn(CCO)c3)c2n1)c1cc(F)ccc1OCC(F)F`, the IC50 [1] is reported as 0.2 nM, the IC50 [2] is reported as 0.3 nM and the IC50 [3] is reported as 0.2 nM. The IC50 [4] was 1.6 nM, the IC50 [5] was 0.2 nM and the inhibition in vivo at 5 mg/kg [6] was 64%. For the same molecule, the inhibition in vivo at 15 mg/kg [7] was 85%, the inhibition in vivo at 30 mg/kg [8] was 61% and the inhibition in vivo at 30 mg/kg [9] was 88%. For the same molecule, the Activity [10] was “Non-Toxic”, the AUC(0-inf) [11] was 540 ng·h/mL and the CL/F [12] was 158 mL/min/kg. For the same molecule, the half-life [13] was 7.2 h, the half-life [14] was 6.28 h and the Tmax [15] was 0.83 h. The Cmax [16] was 1500 ng/mL, the AUC(0-inf) [17] was 2140 ng·h/mL and the Vz [18] was 4.77 L/kg. It also gave a bioavailability [19] of 92%, a fraction unbound [20] of 0.121 and a fraction unbound [21] of 0.044. The IC50 [22] was > 10000 nM, the inhibition [23] was > 80% and the inhibition [24] was > 80%. The inhibition [25] was < 50%, the inhibition [26] was > 80% and the inhibition [27] was < 50%. For the same molecule, the inhibition [28] was < 50%, the inhibition [29] was < 50% and the inhibition [30] was < 50%. The inhibition [31] was < 50%, the inhibition [32] was < 50% and the inhibition [33] was < 50%. The inhibition [34] was < 50%, the inhibition [35] was < 50% and the inhibition [36] was < 50%. The inhibition [37] was > 80%, the inhibition [38] was > 80% and the Activity [39] was “Non-Toxic”.
